The record followed here is patent publication US20260070902A1, “SULFONYL DERIVATIVES AS CCR6 INHIBITORS” (Hoffmann-La Roche Inc., priority 2022, published 2026).

Structures are written as SMILES.

Test [1] concerns the target T1, human CCR6 (Homo sapiens, UniProt P51684).
T1 sequence (P51684 1-374): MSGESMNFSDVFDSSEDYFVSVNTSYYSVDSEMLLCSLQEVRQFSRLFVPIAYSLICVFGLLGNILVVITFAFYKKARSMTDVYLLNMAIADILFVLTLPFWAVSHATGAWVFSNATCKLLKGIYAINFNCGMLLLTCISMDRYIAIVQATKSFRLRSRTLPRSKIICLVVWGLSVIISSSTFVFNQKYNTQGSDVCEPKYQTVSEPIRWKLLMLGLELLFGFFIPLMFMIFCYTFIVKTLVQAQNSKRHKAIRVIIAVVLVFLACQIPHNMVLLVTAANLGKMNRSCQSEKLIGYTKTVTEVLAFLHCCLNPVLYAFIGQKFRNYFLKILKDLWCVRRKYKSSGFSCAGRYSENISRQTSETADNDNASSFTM
Kind of test: CHO-K1 CCR6 chemotaxis assay towards CCL20. In kind it is cell-based. The following applies: relative -Log IC50; CHO-K1 cells overexpressing human CCR6; migration towards 100 ng/ml CCL20; 4 h. From the text:
CHO-K1 CCR6 Chemotaxis Assay Towards CCL20
Cells overexpressing human CCR6 were used in the chemotaxis assay (DiscoverX, cAMP Hunter™ CHO-K1 CCR6 Gi Cell Line). Growth medium of these cells consisted of DMEM/F12, non-essential Amino acids (1×NEAA, Gibco 11140050), 10% FBS and 1× pen/strep (Gibco 15140). For the chemotaxis assay, Corning Transwell plates were used with a pore size of 8 m (Corning 351164). Cells were harvested using trypsin and diluted to 4*10^6 cells/ml in chemotaxis medium (DMEM, 0.25% BSA, pen/strep). Compounds were four-fold serially diluted in DMSO. Further dilutions were made in chemotaxis medium. Cells were incubated with test compounds for 30 min at 37° C. prior to initiation of the assay (2*10^6 cells/ml). Final DMSO concentration in the assay was 0.2%. Wells of the Transwell plates were filled with 200 μl chemotaxis medium containing 100 ng/ml CCL20 (R&D systems 360-MP). 50 μl of the cell/compound suspension was added to the inserts of the Transwell plates (100,000 cells/insert). The Transwell plates were placed in an incubator at 37° C., 5% CO2 for 4 h. After 4 h, the number of migrated cells was quantified using CellTiter Glo (Promega). Percentage inhibition values were calculated based on the low and high signal obtained with 0.2% DMSO in chemotaxis medium without and with CCL20, respectively. The relative −Log IC50 was determined with GraphPad Prism 9 using a four-parameter dose-response model.

Test [2] concerns the target T1, human CCR6. Kind of test: Human CCR6-CRE reporter assay. In kind it is cell-based. Further details: The second construct contained the open reading frame of human CCR6 in the pUNO1 backbone; host or cells: 293FT cells. The following applies: relative -Log IC50; 293FT cells transfected with human CCR6 and CRE-luciferase reporter; 6 μM Forskolin, 6 nM CCL20; 5 h. As for the experimental part: Human CCR6-CRE Reporter Assay
293FT cells were transfected with 2 constructs using TransIT-293 (Mirus). The first construct (pGL4.29, Promega) expressed the luciferase reporter gene luc2P in response to the binding of cAMP-induced CREB to the CREelement in its promoter. The second construct contained the open reading frame of human CCR6 in the pUNO1 backbone under the control of an enhanced CMV promoter (InVivoGen). 48 h after transfection, cells were harvested and diluted to 750,000 cells/ml in culture medium (DMEM, 10% FBS, 1× pen/strep (Gibco 15140)). Compounds were 2.5-fold serially diluted in DMSO. Further dilutions were made in assay medium (DMEM, 10% FBS, 1× pen/strep, 6 μM Forskolin, 6 nM CCL20). 4 μl of the compound solution was added to a white MW384 plate, followed by 20 μl of the cell suspension. Final DMSO concentration in the assay was 0.1%. The MW384 plate was placed in an incubator at 37° C., 5% CO2 for 5 h. Luciferase activity was determined by addition of 24 μl of a 2.5× diluted BriteLite luciferase solution (Perkin Elmer), followed by luminescence measurement using a VICTOR Plate reader (Perkin Elmer). […] The relative −Log IC50 was determined with GraphPad Prism 9 using a four-parameter dose-response model.
(In general: In a reporter assay the amount or activity of a reporter protein is the signal.)

The IC50 is the concentration that inhibits the measured activity by half. High values mean lower potency, low ones higher potency. Turning to `CNC(=O)c1ccc(-c2ccc(S(=N)(=O)N3CCC(Nc4ccc(S(F)(F)(F)(F)F)cc4)CC3)cc2)cn1` (stereo not shown) [Example 121, N-methyl-5-{4-[(4-{[4-(pentafluoro-λ^6-sulfanyl)phenyl]Amino}piperidin-1-yl)sulfonimidoyl]phenyl}pyridine-2-carboxamide], the IC50 at human CCR6 [1] was 158 nM; against human CCR6 [2], 251 nM.
Take `CC(C)c1nnc2ccc(-c3ccc(S(=O)(=O)N4CCC(Nc5cccc(S(F)(F)(F)(F)F)c5)CC4)cc3)cn12` [Example 84, N-[3-(pentafluoro-λ^6-sulfanyl)phenyl]-1-{4-[3-(propan-2-yl)-[1,2,4]triazolo[4,3-a]pyridin-6-yl]benzenesulfonyl}piperidin-4-amine]: the IC50 was 126 nM at human CCR6 [1] and 50.1 nM against human CCR6 [2].
On to `Cc1n[nH]c2cnc(-c3ccc(S(=O)(=O)[C@H]4CC[C@H](Nc5ccc(S(F)(F)(F)(F)F)cc5)CC4)cc3)cc12` [Example 142, 4-(pentafluoro-λ^6-sulfanyl)-N-[trans-4-(4-{3-methyl-1H-pyrazolo[3,4-c]pyridin-5-yl}benzenesulfonyl)cyclohexyl]aniline], for which the IC50 against human CCR6 [1] was 25.1 nM; against human CCR6 [2], 251 nM.
On the same counts, the results for `O=S(=O)(c1ccc(-c2ccc3nncn3c2)cc1)[C@H]1CC[C@H](Nc2ccc(S(F)(F)(F)(F)F)cc2)CC1` [Example 36, 4-(pentafluoro-λ^6-sulfanyl)-N-[trans-4-(4-{[1,2,4]triazolo[4,3-a]pyridin-6-yl}benzenesulfonyl)cyclohexyl]aniline] are 1580 nM and 126 nM.
On to `N#Cc1cnc2ccc(-c3ccc(S(=O)(=O)[C@H]4CC[C@H](Nc5ccc(S(F)(F)(F)(F)F)cc5)CC4)cc3)cn12` [Example 33, 6-(4-{[trans-4-{[4-(pentafluoro-λ^6-sulfanyl)phenyl]Amino}cyclohexyl]sulfonyl}phenyl)imidazo[1,2-a]pyridine-3-carbonitrile], for which the IC50 against human CCR6 [1] was 7.94 nM; against human CCR6 [2], 63.1 nM.
On the same counts, the results for `N#Cc1c[nH]c2ccc(-c3ccc(S(=N)(=O)[C@H]4CC[C@H](Nc5ccc(S(F)(F)(F)(F)F)cc5)CC4)cc3)cc12` (single isomer, unassigned; (+)) [Example 126, (+)-5-(4-{[trans-4-{[4-(pentafluoro-λ^6-sulfanyl)phenyl]Amino}cyclohexyl]sulfonimidoyl}phenyl)-1H-indole-3-carbonitrile] are 126 nM and 126 nM.
On the same counts, the results for `N#Cc1cnc2ccc(-c3ccc(S(=O)(=O)N4CCC(Nc5ccc(S(F)(F)(F)(F)F)cc5)CC4)c(F)c3)cn12` [Example 73, 6-{3-fluoro-4-[(4-{[4-(pentafluoro-λ^6-sulfanyl)phenyl]Amino}piperidin-1-yl)sulfonyl]phenyl}imidazo[1,2-a]pyridine-3-carbonitrile] are 631 nM and 501 nM.
For the molecule `O=C1Cc2ccc(-c3ccc(S(=O)(=O)[C@H]4CC[C@H](Nc5ccc(S(F)(F)(F)(F)F)cc5)CC4)cc3)cc2N1` [Example 59, 6-(4-{[trans-4-{[4-(pentafluoro-λ^6-sulfanyl)phenyl]Amino}cyclohexyl]sulfonyl}phenyl)-2,3-dihydro-1H-indol-2-one], the half-inhibitory concentration (IC50) against human CCR6 [1] was 15.8 nM; against human CCR6 [2], 158 nM.
Turning to `Cc1nnc2ccc(-c3ccc(S(=N)(=O)[C@H]4CC[C@H](Nc5ccc(S(F)(F)(F)(F)F)cc5)CC4)cc3)cn12` (stereo partly drawn) [Example 105, (4-{3-methyl-[1,2,4]triazolo[4,3-a]pyridin-6-yl}phenyl)[trans-4-{[4-(pentafluoro-λ^6-sulfanyl)phenyl]Amino}cyclohexyl](imino)-λ^6-sulfanone], the half-maximal inhibitory concentration (IC50) is 631 nM against human CCR6 [1] and 398 nM against human CCR6 [2].
Regarding `O=c1cc(-c2ccc(S(=O)(=O)[C@H]3CC[C@H](Nc4ccc(S(F)(F)(F)(F)F)cc4)CC3)cc2)cc[nH]1` [Example 52, 4-(4-{[trans-4-{[4-(pentafluoro-λ^6-sulfanyl)phenyl]Amino}cyclohexyl]sulfonyl}phenyl)-1,2-dihydropyridin-2-one], it took 39.8 nM to reach half-maximal inhibition at human CCR6 [2] (IC50).
For the molecule `Cc1cnc2ccc(-c3ccc(S(=O)(=O)N4CCC(Nc5ccc(S(F)(F)(F)(F)F)cc5)CC4)nc3)cn12` [Example 70, 1-[(5-{3-methylimidazo[1,2-a]pyridin-6-yl}pyridin-2-yl)sulfonyl]-N-[4-(pentafluoro-λ^6-sulfanyl)phenyl]piperidin-4-amine], the IC50 against human CCR6 [2] was 1260 nM.
On human CCR6 [2], `N=S(=O)(c1ccc(-c2ccc3c(c2)CC(=O)N3)cc1)[C@H]1CC[C@H](Nc2ccc(S(F)(F)(F)(F)F)cc2)CC1` (stereo partly drawn) [Example 116, 5-(4-{[trans-4-{[4-(pentafluoro-λ^6-sulfanyl)phenyl]Amino}cyclohexyl]sulfonimidoyl}phenyl)-2,3-dihydro-1H-indol-2-one] gave a concentration for half-maximal inhibition (IC50) of 200 nM.
In turn, `CN(C)C(=O)c1ccc(-c2ccc(S(=O)(=O)[C@H]3CC[C@H](Nc4ccc(S(F)(F)(F)(F)F)cc4)CC3)cc2)nc1` [Example 46, N,N-dimethyl-6-(4-{[trans-4-{[4-(pentafluoro-λ^6-sulfanyl)phenyl]Amino}cyclohexyl]sulfonyl}phenyl)pyridine-3-carboxamide] had an IC50 against human CCR6 [2] of 251 nM. The IC50 values of the last two molecules are within 1.5-fold of each other.
The same measure, in the same setting: in the case of `Cc1cc(-c2ccc(S(=O)(=O)[C@H]3CC[C@H](Nc4ccc(S(F)(F)(F)(F)F)cc4)CC3)cc2)cn2c(C(C)C)cnc12` [Example 64, 4-(pentafluoro-λ^6-sulfanyl)-N-[trans-4-{4-[8-methyl-3-(propan-2-yl)imidazo[1,2-a]pyridin-6-yl]benzenesulfonyl}cyclohexyl]aniline] it was 50.1 nM; in that of `N#Cc1cnc2ccc(-c3ccc(S(=O)(=O)[C@H]4CC[C@@H](Nc5ccc(S(F)(F)(F)(F)F)cc5)CC4)cc3)cn12` [Example 17, 6-(4-{[cis-4-{[4-(pentafluoro-λ^6-sulfanyl)phenyl]Amino}cyclohexyl]sulfonyl}phenyl)imidazo[1,2-a]pyridine-3-carbonitrile], 794 nM.
Same read-out and setting: in the case of `Cc1cc(-c2ccc(S(=O)(=O)[C@H]3CC[C@H](Nc4ccc(S(F)(F)(F)(F)F)cc4)CC3)cc2)cn2ccnc12` [Example 149, 4-(pentafluoro-λ^6-sulfanyl)-N-[trans-4-(4-{8-methylimidazo[1,2-a]pyridin-6-yl}benzenesulfonyl)cyclohexyl]aniline] it was 63.1 nM; in that of `O=S(=O)(c1ccc(-c2ncc3[nH]ccc3n2)cc1)[C@H]1CC[C@H](Nc2ccc(S(F)(F)(F)(F)F)cc2)CC1` [Example 145, 4-(pentafluoro-λ^6-sulfanyl)-N-[trans-4-(4-{5H-pyrrolo[3,2-d]pyrimidin-2-yl}benzenesulfonyl)cyclohexyl]aniline], 1580 nM.
Molecule `O=S(=O)(c1ccc(-c2ccc3nccn3c2)c(F)c1)N1CCC(Nc2ccc(S(F)(F)(F)(F)F)cc2)CC1` [Example 72, 1-(3-fluoro-4-{imidazo[1,2-a]pyridin-6-yl}benzenesulfonyl)-N-[4-(pentafluoro-λ^6-sulfanyl)phenyl]piperidin-4-amine] had an IC50 on human CCR6 [2] of 1580 nM. This counts as single-digit micromolar.
In the case of `O=C(NC1CC1)c1cccc(-c2ccc(S(=O)(=O)[C@H]3CC[C@H](Nc4ccc(S(F)(F)(F)(F)F)cc4)CC3)cc2)c1` [Example 144, N-cyclopropyl-4′-{[trans-4-{[4-(pentafluoro-λ^6-sulfanyl)phenyl]amino}cyclohexyl]sulfonyl}-[1,1′-biphenyl]-3-carboxamide], on human CCR6 [2], the concentration for half-maximal inhibition (IC50) is 50.1 nM. Against the preceding molecule, the IC50 is about 32-fold lower.
